In assay [1] the test system is Escherichia coli. As to the kind of experiment: Antibacterial activity against Escherichia coli HB 101. It is filed as functional, organism-based.
A further assay relates to Bacillus subtilis. As to the kind of experiment: Antibacterial activity against Bacillus subtilis 168. It is filed as functional, organism-based. The note with it: subsp. subtilis str. 168.
Another assay concerns Staphylococcus aureus. Description: Antibacterial activity against Staphylococcus aureus ATCC 25923. The class given is functional, organism-based.
The subject of assay [2] is Escherichia coli. Description: Antibacterial activity against Escherichia coli ATCC 25922. The class given is functional, organism-based.
In assay [3] the test system is Candida albicans. As to the kind of experiment: Antifungal activity against Candida albicans at 100 umol by agar diffusion assay. It is filed as functional.
In assay [4] the test system is Candida albicans. As to the kind of experiment: Antifungal activity against Candida albicans at 20 umol by agar diffusion assay. The class given is functional. (In general: Agar diffusion results depend on both activity and mobility in agar.)
Assay [5] has as its system Candida albicans. As to the kind of experiment: Antifungal activity against Candida albicans at 50 umol by agar diffusion assay. It is filed as functional.

The source made the active and inactive calls. The calls are words filed in the database; no cut-off is given here.

Consider `C[C@H]1C[C@H](O)CC(=O)c2c(O)cc(O)cc2CC(=O)O1`, for which the result in the assay on Escherichia coli [1], in the assay on Bacillus subtilis, in the assay with Staphylococcus aureus and in the assay on Escherichia coli [2] was inactive.

`C[C@H]1CCC[C@@H](O)CC(=O)c2c(O)cc(O)cc2CC(=O)O1`: the result in the assay on Escherichia coli [1], in the assay on Bacillus subtilis, in the assay on Staphylococcus aureus and in the assay on Escherichia coli [2] was inactive.

On to `CC1C/C=C/C(=O)c2c(O)cc(O)cc2CC(=O)O1` (centres undefined), for which the outcome in the assay with Escherichia coli [1], in the assay on Bacillus subtilis, in the assay on Staphylococcus aureus and in the assay on Escherichia coli [2] was inactive.

With `C[C@H]1CCCCCC(=O)c2c(O)cc(O)cc2CC(=O)O1`, the outcome with Escherichia coli [1], with Bacillus subtilis, in the assay on Staphylococcus aureus and in the assay with Escherichia coli [2] was inactive.

`C[C@@H]1C[C@H](O)CC(=O)c2c(O)cc(O)cc2CC(=O)O1` [XESTODECALACTONE B]: the result with Escherichia coli [1], in the assay on Bacillus subtilis, with Staphylococcus aureus and in the assay on Escherichia coli [2] was inactive. In addition, the “inhibition zone (IZ)” value in the assay with Candida albicans [3] is 25 mm; in the assay on Candida albicans [4], 7 mm; with Candida albicans [5], 12 mm.

As for `C[C@H]1CCC[C@H](O)CC(=O)c2c(O)cc(O)cc2CC(=O)O1`, the result with Escherichia coli [1], with Bacillus subtilis, with Staphylococcus aureus and in the assay on Escherichia coli [2] was inactive.

As for `C[C@@H]1CCCC(=O)C[C@@H](O)CC(=O)O1`, the outcome with Escherichia coli [1], in the assay with Bacillus subtilis, with Staphylococcus aureus and with Escherichia coli [2] was inactive.

With `C[C@@H]1C[C@H](O)CCCC(=O)CC(=O)O1`, the result with Escherichia coli [1], in the assay with Bacillus subtilis, in the assay with Staphylococcus aureus and in the assay with Escherichia coli [2] was inactive.

With `C[C@@H]1CCCC(=O)c2c(O)cc(O)cc2CC(=O)O1`, the outcome in the assay with Escherichia coli [1], with Bacillus subtilis, in the assay with Staphylococcus aureus and in the assay on Escherichia coli [2] was inactive.
